“Also recorded” adds a separate entry of the source.
Columns and labels:
in vivo = details: mouse, 1 mg/kg
Procedure: FIG. 19 is a bar graph illustrating plasma digoxin levels in mice. Saline or digoxin were daily injected in mice at a dose of 1.0 mg/kg. Plasma digoxin levels measured 24 hours after the final injection were at or below the therapeutic range for humans (0.8-2 ng/mL).
(§1) C57BL/6J male mice were placed on a 45% high-fat diet (HFD) for […] with and without digoxin (ip 1 mg/kg twice a week). Digoxin, 1 mg/kg ip daily, in mice results in the therapeutic serum levels achieved in humans (0.5-2 ng/ml). Plasma ALT, liver histology, neutrophil staining, leukocytes profiling, mitochondrial reactive oxygen species (ROS) generation, and gene transcriptome microarrays were analyzed. The ability of digoxin to inhibit inflammasome in mouse and human macrophages was tested. The chronic plus binge model of alcoholic hepatitis and LPS/D-GalN hepatitis models were also performed.

[1] = tested on: IL-1β secretion and caspase-1 activation in mouse macrophages; test: Inflammasome inhibition in mouse macrophages; format: cell-based
Procedure: as §1

[2] = tested on: C57BL/6 mice on high-fat diet; test: High-fat diet (HFD) NASH model; format: in vivo, mouse
Procedure: FIGS. 21A-21C illustrate the finding that digoxin reduces liver damage, inflammation, glycolysis and total cholesterol. FIG. […] The liver tissues were performed by H & E staining, and the neutrophils were stained with CD11b/Ly6G double positive cells by FACS. Data are expressed as the mean±SD from 5 mice in each treatment group. *p<0.05 determined by Student's t-test. […] Data are expressed as the mean±SD from 5 mice in each treatment group. *p<0.05 determined by Student's t-test. FIG. 21C: The liver total RNA were isolated from as procedure from FIG. 21a, and subjected to illumina transcriptome analysis. Over 15 genes that most highly expressed were listed. Data are expressed as the mean±SD from 3 mice in each treatment group
FIGS. 22A-22D illustrate the finding that digoxin reduces high fat feeding induced obesity in mice. Wild type C57BL/6 mice were supplied with high-fat diet food (Research diets D12451 45% fat) for 12 weeks with or without the concurrent IP injection of Digoxin (twice a week, 1.0 mg/kg) or PBS control. The body weight was carefully monitored as the change of each 3 day's average. […] FIG. 22A illustrates examples of mice on high-fat diet with (DIG) and without (Ctrl) digoxin. […] The ratio of white adipose tissue and bodyweight after 12 weeks is shown (FIG. 22C). […] Data are expressed as the mean±SD from 5 mice in each treatment group. *p<0.05 determined by Student's t-test.
FIGS. 24A-24G illustrate the finding that digoxin limits hepatic steatosis and inflammation. […] The liver tissues were applied for H & E staining, and graphs show quantification of NAFLD histological activity score (FIGS. 24A-24B). The liver tissue inflammation was also determined by the neutrophil and monocyte infiltration, which measured by CD11b/Ly6G and CD11b/Ly6C double positive cells using FACS ([…]). Representative FACS flows from digoxin versus saline control are shown (FIGS. 24F-24G). The quantification of neutrophils and monocytes in digoxin versus saline control was performed. Serum ALT level in digoxin versus saline control was measured (FIGS. 24C-24D). The steatosis maker of triacylglcerol (TG) accumulation in the lever after digoxin treatment versus saline control was determined (FIG. 24E). All data throughout the figure are shown as the mean±SD from 5 mice in each group. Statistical significance was determined by one-way ANOVA. *p<0.05, **p<0.01 for each digoxin group versus saline control.
as §1

mouse macrophages = test: Mitochondrial ROS production in mouse macrophages; format: cell-based; details: TLR and hydrogen peroxide stimulation
human macrophages = test: Mitochondrial ROS production in human macrophages; format: cell-based; details: TLR and hydrogen peroxide stimulation
[3] = tested on: C57BL/6 mice challenged with LPS/D-galactosamine; test: LPS/D-GalN hepatitis (acute liver injury) model; format: in vivo, mouse
Procedure: FIGS. 23A-23D illustrate the finding that digoxin protects the severity of experimental acute liver failure. Digoxin was administrated intraperitoneally to C57BL/6 mice at dose level of 2, 1, 0.2, 0.05 mg/kg body weight and saline control for 1 hour, and then the mice were challenged with LPS (1 mg/kg body weight)/D-galactosamine (D-GalN) for 5 hours. The morphology of liver tissue was determined by H & E staining, and the inflammation was determined by the neutrophil infiltration of Gr-1 antibody staining Representative H & E stains (FIG. 23A, upper), and Gr-1 (FIG. 23A, lower) positive area of liver sections (original magnification ×100) from digoxin and saline control are illustrated. Graphs show quantification of injured (FIG. 23B) or Gr-1 (FIG. 23C) positive area by morphometry using Image J. *p<0.05 for each dosage of digoxin group versus saline control. The activity of the hepatic injury marker alanine transaminase (ALT) in serum level from digoxin versus saline control was measured (FIG. 23 D). All data throughout the figure are shown as the mean±SD. Statistical significance was determined by one-way ANOVA.
FIGS. 25A-25H illustrate the finding that digoxin alleviates hepatic oxidative stress and inflammasome activation. C57BL/6 mice were injected intraperitoneally with digoxin (1 mg/kg) and PBS control for 1 hour, and then challenged with LPS (1 mg/kg)/D-GlaN (500 mg/kg) for 5 h; C57BL/6 mice were on HFD with concurrent intraperitoneal injection of digoxin (1 mg/kg) for 12 weeks. The cellular oxidative stress and intracellular ROS production was monitored by intraperitoneal injection of DHE in last 30 min before the mice sacrificed. Representative DHE stains in LPS/D-GlaN (FIG. 25A) and HFD (FIG. 25B) from digoxin versus saline control are illustrated. The quantification of DHE positive area in digoxin versus saline control was performed (FIG. 25A, lower, and FIG. 25B, lower). The total RNA from liver tissue was isolated, and applied for gene expression of proIL-1β, TNFα, NLRP3 and HIF1a (FIGS. 25C-25F). The total liver protein was applied for protein expression of HIF1α, caspase-1, proIL-1β by western blot (FIG. 25H). The serum IL-1β was measured by ELISA (FIG. 25G). All data throughout the figure are shown as the mean±SD from 5 mice in each group. Statistical significance was determined by one-way ANOVA. *p<0.05, **p<0.01 for each digoxin group versus saline control.
as §1

[4] = tested on: mice, chronic plus binge model of alcoholic hepatitis; test: Chronic plus binge model of alcoholic hepatitis; format: in vivo, mouse
Procedure: as §1

[5] = HFD 12 weeks, IP twice a week 1.0 mg/kg
[6] = HFD 12 weeks, ip 0.2 and 0.05 mg/kg twice a week, low dose-dependent manner
[7] = ip 1 mg/kg, LPS/D-GlaN (5 h) and HFD (12 weeks) mice
[8] = twice, a quarter and a twentieth of the human equivalent dose

SMILES: C[C@H]1O[C@@H](O[C@@H]2[C@@H](O)C[C@H](O[C@@H]3[C@@H](O)C[C@@H](O[C@H]4CC[C@@]5(C)[C@H](CC[C@@H]6[C@@H]5C[C@@H](O)[C@]5(C)C(C7=CC(=O)OC7)CC[C@]65O)C4)O[C@@H]3C)O[C@@H]2C)C[C@H](O)[C@H]1O (stereo partly drawn) [digoxin, 4-[(3S,5R,8R,9S,10S,12R,13S,14S)-3-[(2S,4S,5R,6R)-5-[(2S,4S,5R,6R)-5-[(2S,4S,5R,6R)-4,5-dihydroxy-6-methyl-oxan-2-yl]oxy-4-hydroxy-6-methyl-oxan-2-yl]oxy-4-hydroxy-6-methyl-oxan-2-yl]oxy-12,14-dihydroxy-10,13-dimethyl-1,2,3,4,5,6,7,8,9,11,12,15,16,17-tetradecahydrocyclopenta[a]phenanthren-17-yl]-5H-furan-2-one]
- concentration at 24 h (in vivo): 0.8 to 2 ng/mL
- concentration at 24 h (in vivo; ip): 0.5 to 2 ng/mL
- IL-1 β secretion [1]: inhibited
- caspase-1 activation [1]: inhibited
- fat deposition (liver oil red, TG content) ([2]; HFD 12 weeks, 1 mg/kg twice a week): reduces
- glycolysis [2, 5]: reduces
- high fat feeding induced obesity [2, 5]: reduces
- liver damage [2, 5]: reduces
- serum total cholesterol [2, 5]: reduces
- hepatic steatosis [2, 6]: limits
- liver inflammation [2, 6]: limits
- signal genes of ROS metabolism, antioxidant pathway and glycolysis (microarray) ([2]; HFD liver): down-regulated
- serum ALT ([2]; HFD+DIG, HFD alone 417±398 U/L, P<0.001): 91±73 U/L
- liver inflammation ([2]; HFD, IP twice a week 1 mg/kg): reduces; also recorded: limits
- hepatic steatosis ([2]; HFD, ip 1 mg/kg twice a week): limits
- histological injury ([2]; HFD, ip 1 mg/kg twice a week): reduced
- neutrophilic infiltrate ([2]; HFD, ip 1 mg/kg twice a week): reduced
- liver inflammation ([2]; digoxin started after 4 weeks HFD): significant reduction
- liver neutrophil ([2]; digoxin started after 4 weeks HFD, HFD alone 24.6%): 14.3%
- liver monocytes ([2]; digoxin started after 4 weeks HFD, HFD alone 31.6%): 19.1%
- body weight / weight gain ([2]; mice on HFD): less weight gain; also recorded: changes
- mitochondrial ROS production (mouse macrophages): dose-dependently inhibited
- mitochondrial ROS production (human macrophages): dose-dependently inhibited
- histological injury ([3]; LPS/D-GalN hepatitis): reduced
- neutrophilic infiltrate ([3]; LPS/D-GalN hepatitis): reduced
- serum ALT ([3]; LPS/D-GalN hepatitis): lower
- hepatic oxidative stress [3, 7]: alleviates
- inflammasome activation [3, 7]: alleviates
- severity of experimental acute liver failure ([3]; ip 2, 1, 0.2, 0.05 mg/kg 1 hour before LPS/D-GalN for 5 hours): protects
- inflammation in an acute liver injury model ([3]; mouse, in vivo): inhibits
- HIF-1α protein [3, 8]: reduction
- IL-1β protein [3, 8]: reduction
- cleaved (P10) caspase-1 protein [3, 8]: reduction
- liver HIF-1α transcripts [3, 8]: reduction
- liver Pro-IL-1β transcripts [3, 8]: reduction
- liver hemorrhage and necrosis [3, 8]: improvement
- pro-IL-1β protein [3, 8]: reduction
- histological injury [4]: reduced
- neutrophilic infiltrate [4]: reduced
- serum ALT [4]: lower
